In patent US20080287653A1, “METHOD FOR PRODUCING INHIBITORS AND INHIBITORS FORMED THEREFROM” (THE UNIVERSITY OF AKRON, priority 2007, published 2008):
Non-standard residues stand in square brackets, D forms with d. Residues, ends and D or L forms follow the SMILES beside them. Lys(Thioacetyl) = CC(=S)NCCCC[C@H](N)C(=O)O

Key:
[1] = target: T1, SIRT1 (Homo sapiens, UniProt Q96EB6); assay: HPLC-based SIRT1 inhibition assay with purified GST-SIRT1; assay type: biochemical
T1 construct: made in house
T1 sequence (Q96EB6 1-747): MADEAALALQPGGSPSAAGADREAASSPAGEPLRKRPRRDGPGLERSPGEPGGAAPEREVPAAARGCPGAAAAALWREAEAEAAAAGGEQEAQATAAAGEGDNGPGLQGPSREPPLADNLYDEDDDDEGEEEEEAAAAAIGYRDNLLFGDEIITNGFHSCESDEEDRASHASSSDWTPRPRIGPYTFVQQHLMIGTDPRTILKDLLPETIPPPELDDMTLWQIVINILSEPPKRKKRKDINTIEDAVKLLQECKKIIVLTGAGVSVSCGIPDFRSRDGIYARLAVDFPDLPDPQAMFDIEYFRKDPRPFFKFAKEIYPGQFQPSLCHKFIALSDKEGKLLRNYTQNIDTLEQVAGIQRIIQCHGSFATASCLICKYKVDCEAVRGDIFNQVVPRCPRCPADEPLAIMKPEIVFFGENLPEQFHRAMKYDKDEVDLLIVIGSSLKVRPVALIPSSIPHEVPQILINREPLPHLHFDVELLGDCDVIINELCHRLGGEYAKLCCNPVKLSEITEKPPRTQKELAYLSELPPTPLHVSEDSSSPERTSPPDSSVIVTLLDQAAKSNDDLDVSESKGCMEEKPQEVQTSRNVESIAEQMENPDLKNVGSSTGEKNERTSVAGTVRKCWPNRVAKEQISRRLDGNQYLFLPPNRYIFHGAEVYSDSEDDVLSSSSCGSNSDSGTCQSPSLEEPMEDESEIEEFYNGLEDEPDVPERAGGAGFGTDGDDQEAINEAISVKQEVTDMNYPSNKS
Procedure: Inhibition assays with purified SIRT1, SIRT2, and SIRT3. GST-SIRT1 that could be produced in a laboratory was used for the SIRT1 inhibition assay. SIRT2 and SIRT3 are obtainable from commercial sources known to those skilled in the art. Consistent HPLC-based assay procedures were used for the inhibition assays with SIRT1, SIRT2, and SIRT3. […] An enzymatic reaction was initiated by the addition of an enzyme at 37° C. and was allowed to be incubated at 37° C.: 10 minutes as follows: for SIRT1 assay, or 60 minutes for SIRT2 and SIRT3 assays. Incubation was quenched at the indicated time with the following stop solution: 100 mM HCl and 0.16 M acetic acid. […] All peptide stock solutions were prepared in ddH2O. IC50 values were estimated from Dixon plots (1/v0 vs. [inhibitor]) as an indication of the inhibition potency.

[2] = target: T2, HDAC8 (Homo sapiens, UniProt Q9BY41); assay: HPLC-based assay with purified HDAC8 (de(thio)acetylation of peptides); assay type: biochemical; design: key to HDAC8 (sensitive / resistant to HDAC8): +: Sensitive to HDAC8; —: Resistant to HDAC8; conditions: for formation of de(thio)acetylated peptide product by HDAC8: 0.3 mM peptide, 1.5 μM HDAC8, 2 hours at room temperature; for HDAC8 (sensitive / resistant to HDAC8): enzymatic dethioacetylation by HDAC8
T2 construct: purchased
T2 sequence (Q9BY41 1-377): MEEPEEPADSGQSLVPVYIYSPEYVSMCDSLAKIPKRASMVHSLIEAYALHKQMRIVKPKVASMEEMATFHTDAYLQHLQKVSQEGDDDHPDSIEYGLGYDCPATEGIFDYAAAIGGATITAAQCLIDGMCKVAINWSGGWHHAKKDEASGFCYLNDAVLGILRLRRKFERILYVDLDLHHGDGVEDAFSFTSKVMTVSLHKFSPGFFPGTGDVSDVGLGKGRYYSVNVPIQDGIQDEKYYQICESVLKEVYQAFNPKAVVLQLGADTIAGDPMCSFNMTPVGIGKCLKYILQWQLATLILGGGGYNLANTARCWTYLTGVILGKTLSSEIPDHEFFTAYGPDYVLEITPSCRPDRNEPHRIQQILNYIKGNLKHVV
Procedure: To test the foregoing premise, peptides 1b, 2, and 3a were allowed to be incubated for 2 hours at room temperature in the HDAC8 assay buffer in a HPLC-based HDAC8 assay. […] FIG. 5 provides representative HPLC chromatograms from HDAC8 assays with peptides 1b, 2, and 3a. All assays were performed in duplicate and essentially the same HPLC chromatograms were obtained for the duplicates. The small peak with tR˜27 minutes in the second chromatogram was from a minor impurity in the purified peptide 2 sample, rather than the dethioacetylated product. The lack of detectable dethioacetylation of peptide 3a was apparent from the absence of a peak with tR˜34 minutes, shown for peptide 3c in the third chromatogram.
Assay with purified HDAC8. The purified HDAC8 could be obtained from a commercial source for use with a HPLC-based HDAC8 assay. In brief, a HDAC8 assay solution had the following components: 25 mM Tris.HCl (pH 8.0), 137 mM NaCl, 2.7 mM KCl, 1 mM MgCl2, 1 mg/mL BSA (SIGMA Cat. #A3803 with reduced fatty acid content), 0.3 mM peptide 1b, 2, or 3a, and 1.5 μM HDAC8. […] An enzymatic reaction was initiated by the addition of HDAC8 at room temperature and was allowed to be incubated at room temperature for 2 hours before being quenched with the following stop solution: 1.0 M HCl and 0.16 M acetic acid. The quenched assay solutions were directly injected into a reversed-phase HPLC C18 column (100 Å, 0.46×25 cm), eluting with the following gradients of ddH2O containing 0.05% (v/v) trifluoroacetic acid (mobile phase A) and acetonitrile containing 0.05% (v/v) trifluoroacetic acid (mobile phase B): linear increase from 0% B to 35% B (for the assay with peptide 2 or 1b) or 40% B (for the assay with peptide 3a or […]) from 0-40 minutes (1 mL/min), and UV monitoring at 214 nm. […] The enzymatically formed peptide 1c was confirmed by its comigration with the chemically synthesized authentic sample and by MALDI-TOF mass spectrometric analysis, and was quantified by HPLC peak integration and comparison with that of synthetic authentic sample.

SMILES	inhibition weaker for SIRT1 as compared to SIRT2 ([1]; SIRT1 vs SIRT2)	formation of de(thio)acetylated peptide product by HDAC8 [2]	HDAC8 (sensitive / resistant to HDAC8) [2]	stronger inhibition with respect to SIRT1 than SIRT2 and SIRT3 ([1]; SIRT1 vs SIRT2 and SIRT3)
CC[C@H](C)[C@H](NC(=O)[C@@H](NC(=O)[C@H](CCCCNC(C)=S)NC(=O)[C@H](CC(=O)O)NC(=O)[C@H](CO)NC(=O)[C@@H]1CCCN1C(=O)[C@@H](N)CCSC)[C@@H](C)O)C(=O)NCC(=O)NCC(=O)O [Peptide 2] (H-MPSD[Lys(Thioacetyl)]TIGG-OH)	about 10 fold	no detectable formation	—^d	
CC[C@H](C)[C@H](NC(=O)[C@@H](NC(=O)[C@H](CCCCN)NC(=O)[C@H](CCCNC(=N)N)NC(=O)[C@H](CC(C)C)NC(=O)[C@H](CC(C)C)NC(=O)[C@H](CCCNC(=N)N)NC(=O)[C@H](CCCNC(=N)N)NC(=O)[C@H](CCSC)NC(=O)[C@@H](NC(=O)[C@H](CCCCNC(C)=S)NC(=O)CNC(=O)[C@H](CO)NC(=O)[C@H](CCCNC(=N)N)NC(=O)[C@@H](NC(=O)[C@H](CCCCN)NC(=O)[C@@H]1CCCN1C(=O)[C@H](CC(C)C)NC(=O)[C@H](CCCNC(=N)N)NC(=O)[C@@H](N)CCCCN)[C@@H](C)O)C(C)C)[C@@H](C)CC)C(=O)O [Peptide 3a] (H-KRLPKTRSG[Lys(Thioacetyl)]VMRRLLRKII-OH)		no detectable formation	—	about 5 fold
